Where a SMILES comes first, the peptide text is derived from it. Bridges are numbered along the chain shown (N, C = ends). [ ]: non-standard residue; d: D form. The star is where a group is joined. hPhe(3-Cl-4-CF3) = N[C@@H](CCc1ccc(C(F)(F)F)c(Cl)c1)C(=O)O; NPrPhe(4-CF3) = CCCN[C@@H](Cc1ccc(C(F)(F)F)cc1)C(=O)O; NMeGly(cPent) = CN[C@H](C(=O)O)C1CCCC1; Pro(4,4-F2) = O=C(O)[C@@H]1CC(F)(F)CN1; Hyp = O=C(O)[C@@H]1C[C@@H](O)CN1; NMeL = CN[C@@H](CC(C)C)C(=O)O; Morpholide = C1CN(*)CCO1; NMeA = CN[C@@H](C)C(=O)O; Ac5c = NC1(C(=O)O)CCCC1; Aze = O=C(O)[C@@H]1CCN1; Ac4c = NC1(C(=O)O)CCC1; NEtG = CCNCC(=O)O; Sar = CNCC(=O)O
Columns and labels:
[1] = target: GDP-bound KRAS wild-type protein (Homo sapiens, UniProt P01116); assay: Binding to KRAS by surface plasmon resonance (SPR), Single Cycle Kinetics; conditions: SPR Single Cycle Kinetics, GDP-bound KRAS wild-type protein, 1:1 binding model; read-out: KRAS KD
[2] = target: GDP-bound NRAS wild-type protein (Homo sapiens, UniProt P01111); assay: Binding to NRAS by surface plasmon resonance (SPR), Single Cycle Kinetics; conditions: SPR, GDP-bound NRAS wild-type protein vs GDP-bound KRAS wild-type protein
[3] = target: GDP-bound HRAS wild-type protein (Homo sapiens, UniProt P01112); assay: Binding to HRAS by surface plasmon resonance (SPR), Single Cycle Kinetics; conditions: SPR, GDP-bound HRAS wild-type protein vs GDP-bound KRAS wild-type protein
Sequence of GDP-bound HRAS wild-type protein (P01112 whole entry): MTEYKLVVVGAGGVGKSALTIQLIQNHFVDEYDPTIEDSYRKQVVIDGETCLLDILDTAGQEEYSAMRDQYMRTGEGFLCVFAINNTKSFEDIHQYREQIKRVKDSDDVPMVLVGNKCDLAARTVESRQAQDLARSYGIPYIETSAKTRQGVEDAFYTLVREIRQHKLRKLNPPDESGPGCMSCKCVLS

Sequence of GDP-bound KRAS wild-type protein (P01116 whole entry): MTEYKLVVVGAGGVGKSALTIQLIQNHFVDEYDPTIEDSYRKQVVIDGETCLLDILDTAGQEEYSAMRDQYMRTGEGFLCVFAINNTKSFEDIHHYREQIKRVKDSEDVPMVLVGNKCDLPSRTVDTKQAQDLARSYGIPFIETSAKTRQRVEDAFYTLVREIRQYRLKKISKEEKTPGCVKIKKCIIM
Sequence of GDP-bound NRAS wild-type protein (P01111 whole entry): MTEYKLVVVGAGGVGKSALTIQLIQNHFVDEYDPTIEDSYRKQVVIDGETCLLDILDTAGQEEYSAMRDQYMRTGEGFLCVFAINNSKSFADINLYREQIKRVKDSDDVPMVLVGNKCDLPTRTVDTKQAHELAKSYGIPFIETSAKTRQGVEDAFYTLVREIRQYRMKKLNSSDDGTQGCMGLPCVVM

| Kd [1] [nM] | Structure (SMILES) | NRAS/KRAS (ratio of KD value for NRAS to KD value for KRAS) [2] | HRAS/KRAS (ratio of KD value for HRAS to KD value for KRAS) [3] |
| --- | --- | --- | --- |
| 2.4 | CCCN1C(=O)CN(C)C(=O)CN(CC)C(=O)[C@H]([C@@H](C)CC)NC(=O)[C@H](CC(C)C)N(C)C(=O)C[C@@H](C(=O)N2CCOCC2)NC(=O)[C@H](C2CCCC2)N(C)C(=O)C2(CCCC2)NC(=O)[C@@H]2CC(F)(F)CN2C(=O)[C@H](CCc2ccc(C(F)(F)F)c(Cl)c2)NC(=O)CN(C)C(=O)[C@@H]1Cc1ccc(C(F)(F)F)cc1 [PP0333] ([NMeL]I[NEtG][Sar][NPrPhe(4-CF3)][Sar][hPhe(3-Cl-4-CF3)][Pro(4,4-F2)][Ac5c][NMeGly(cPent)]D-Morpholide; lactam N-11) | B (a compound having 3 or more and less than 10 is denoted as B) | C (A compound having a KD ratio of 0.1 or more and less than 3 is denoted as C) |
| 4.7 | CCCN1C(=O)CN(C)C(=O)CN(CC)C(=O)[C@H]([C@@H](C)CC)NC(=O)[C@H](CC(C)C)N(C)C(=O)C[C@@H](C(=O)N2CCOCC2)NC(=O)[C@H](C2CCCC2)N(C)C(=O)C2(CCC2)NC(=O)[C@@H]2CC(F)(F)CN2C(=O)[C@H](CCc2ccc(C(F)(F)F)c(Cl)c2)NC(=O)CN(C)C(=O)[C@@H]1Cc1ccc(C(F)(F)F)cc1 [PP0334] ([NMeL]I[NEtG][Sar][NPrPhe(4-CF3)][Sar][hPhe(3-Cl-4-CF3)][Pro(4,4-F2)][Ac4c][NMeGly(cPent)]D-Morpholide; lactam N-11) | B (a compound having 3 or more and less than 10 is denoted as B) | C (A compound having a KD ratio of 0.1 or more and less than 3 is denoted as C) |
| 1.3 | CCCN1C(=O)CN(C)C(=O)CN(CC)C(=O)[C@H]([C@@H](C)CC)NC(=O)[C@H](CC(C)C)N(C)C(=O)C[C@@H](C(=O)N2CCOCC2)NC(=O)[C@H](C2CCCC2)N(C)C(=O)C2(CCCC2)NC(=O)[C@@H]2C[C@@H](OCC)CN2C(=O)[C@H](CCc2ccc(C(F)(F)F)c(Cl)c2)NC(=O)CN(C)C(=O)[C@@H]1Cc1ccc(C(F)(F)F)cc1 [PP0335] ([NMeL]I[NEtG][Sar][NPrPhe(4-CF3)][Sar][hPhe(3-Cl-4-CF3)][Hyp](Et)[Ac5c][NMeGly(cPent)]D-Morpholide; lactam N-11) | B (a compound having 3 or more and less than 10 is denoted as B) | C (A compound having a KD ratio of 0.1 or more and less than 3 is denoted as C) |
| 1.6 | CCCN1C(=O)CN(C)C(=O)CN(CC)C(=O)[C@H]([C@@H](C)CC)NC(=O)[C@H](CC(C)C)N(C)C(=O)C[C@@H](C(=O)N2CCOCC2)NC(=O)[C@H](C2CCCC2)N(C)C(=O)C2(CCC2)NC(=O)[C@@H]2C[C@@H](OCC)CN2C(=O)[C@H](CCc2ccc(C(F)(F)F)c(Cl)c2)NC(=O)CN(C)C(=O)[C@@H]1Cc1ccc(C(F)(F)F)cc1 [PP0336] ([NMeL]I[NEtG][Sar][NPrPhe(4-CF3)][Sar][hPhe(3-Cl-4-CF3)][Hyp](Et)[Ac4c][NMeGly(cPent)]D-Morpholide; lactam N-11) | B (a compound having 3 or more and less than 10 is denoted as B) | B (a compound having 3 or more and less than 10 is denoted as B) |
| 2.5 | CCCN1C(=O)CN(C)C(=O)[C@@H]2CCN2C(=O)[C@H]([C@@H](C)CC)NC(=O)[C@H](CC(C)C)N(C)C(=O)C[C@@H](C(=O)N2CCOCC2)NC(=O)[C@H](C2CCCC2)N(C)C(=O)C2(CCCC2)NC(=O)[C@@H]2CCCN2C(=O)[C@H](CCc2ccc(C(F)(F)F)c(Cl)c2)NC(=O)CN(C)C(=O)[C@@H]1Cc1ccc(C(F)(F)F)cc1 [PP0337] ([NMeL]I[Aze][Sar][NPrPhe(4-CF3)][Sar][hPhe(3-Cl-4-CF3)]P[Ac5c][NMeGly(cPent)]D-Morpholide; lactam N-11) | B (a compound having 3 or more and less than 10 is denoted as B) | B (a compound having 3 or more and less than 10 is denoted as B) |
| 5 | CCCN1C(=O)CN(C)C(=O)[C@@H]2CCN2C(=O)[C@H]([C@@H](C)CC)NC(=O)[C@H](CC(C)C)N(C)C(=O)C[C@@H](C(=O)N2CCOCC2)NC(=O)[C@H](C2CCCC2)N(C)C(=O)C2(CCCC2)NC(=O)[C@@H]2CC(F)(F)CN2C(=O)[C@H](CCc2ccc(C(F)(F)F)c(Cl)c2)NC(=O)CN(C)C(=O)[C@@H]1Cc1ccc(C(F)(F)F)cc1 [PP0339] ([NMeL]I[Aze][Sar][NPrPhe(4-CF3)][Sar][hPhe(3-Cl-4-CF3)][Pro(4,4-F2)][Ac5c][NMeGly(cPent)]D-Morpholide; lactam N-11) | B (a compound having 3 or more and less than 10 is denoted as B) | B (a compound having 3 or more and less than 10 is denoted as B) |
| 1.7 | CCCN1C(=O)CN(C)C(=O)[C@@H]2CCN2C(=O)[C@H]([C@@H](C)CC)NC(=O)[C@H](CC(C)C)N(C)C(=O)C[C@@H](C(=O)N2CCOCC2)NC(=O)[C@H](C2CCCC2)N(C)C(=O)C2(CCC2)NC(=O)[C@@H]2C[C@@H](OCC)CN2C(=O)[C@H](CCc2ccc(C(F)(F)F)c(Cl)c2)NC(=O)CN(C)C(=O)[C@@H]1Cc1ccc(C(F)(F)F)cc1 [PP0342] ([NMeL]I[Aze][Sar][NPrPhe(4-CF3)][Sar][hPhe(3-Cl-4-CF3)][Hyp](Et)[Ac4c][NMeGly(cPent)]D-Morpholide; lactam N-11) | B (a compound having 3 or more and less than 10 is denoted as B) | B (a compound having 3 or more and less than 10 is denoted as B) |
| 1.3 | CCCN1C(=O)[C@@H]2CCN2C(=O)[C@H](C)N(C)C(=O)[C@H]([C@@H](C)CC)NC(=O)[C@H](CC(C)C)N(C)C(=O)C[C@@H](C(=O)N2CCOCC2)NC(=O)[C@H](C2CCCC2)N(C)C(=O)C2(CCCC2)NC(=O)[C@@H]2CCCN2C(=O)[C@H](CCc2ccc(C(F)(F)F)c(Cl)c2)NC(=O)CN(C)C(=O)[C@@H]1Cc1ccc(C(F)(F)F)cc1 [PP0343] ([NMeL]I[NMeA][Aze][NPrPhe(4-CF3)][Sar][hPhe(3-Cl-4-CF3)]P[Ac5c][NMeGly(cPent)]D-Morpholide; lactam N-11) | C (A compound having a KD ratio of 0.1 or more and less than 3 is denoted as C) | B (a compound having 3 or more and less than 10 is denoted as B) |
| 1.1 | CCCN1C(=O)[C@@H]2CCN2C(=O)[C@H](C)N(C)C(=O)[C@H]([C@@H](C)CC)NC(=O)[C@H](CC(C)C)N(C)C(=O)C[C@@H](C(=O)N2CCOCC2)NC(=O)[C@H](C2CCCC2)N(C)C(=O)C2(CCC2)NC(=O)[C@@H]2CCCN2C(=O)[C@H](CCc2ccc(C(F)(F)F)c(Cl)c2)NC(=O)CN(C)C(=O)[C@@H]1Cc1ccc(C(F)(F)F)cc1 [PP0344] ([NMeL]I[NMeA][Aze][NPrPhe(4-CF3)][Sar][hPhe(3-Cl-4-CF3)]P[Ac4c][NMeGly(cPent)]D-Morpholide; lactam N-11) | C (A compound having a KD ratio of 0.1 or more and less than 3 is denoted as C) | B (a compound having 3 or more and less than 10 is denoted as B) |

— patent publication US20240158446A1, “CYCLIC COMPOUND HAVING SELECTIVE INHIBITORY ACTION ON KRAS OVER HRAS AND NRAS” (CHUGAI SEIYAKU KABUSHIKI KAISHA, priority 2021, published 2024)
